Experimental data as given in the OligoGym collection.
HELM strings list units from the 5' end as sugar, base in round brackets, then linkage (d deoxyribose, r ribose, m 2'-O-methyl, p phosphodiester). Strings are as the collection lists them; they lack the last nucleoside at the 3' end of the tested compound. [moe] = 2'-O-(2-methoxyethyl) (MOE); [sp] = phosphorothioate linkage; [m5C] = 5-methylcytosine

biological target: APP; assay: mouse, dose not given; settings: ASO

With “RNA1{[moe](G)[sp].[moe]([m5C])p.[moe](A)p.[moe](A)p.[moe]([m5C])[sp].d(A)[sp].d(G)[sp].d(A)[sp].d(T)[sp].d([m5C])[sp].d(T)[sp].d([m5C])[sp].d(T)[sp].d(T)[sp].d(A)[sp].[moe](T)p.[moe](T)p.[moe]([m5C])[sp].[moe](T)}$$$$ (last 3' nucleoside missing)” as the substance, how does the 3 h FOB score read?
The 3 h FOB score was 0 score 0-7.

For “RNA1{[moe](G)[sp].[moe]([m5C])p.[moe](A)p.[moe](T)p.[moe]([m5C])[sp].d(A)[sp].d([m5C])[sp].d(T)[sp].d(T)[sp].d(A)[sp].d([m5C])[sp].d(A)[sp].d(A)[sp].d(A)[sp].d([m5C])[sp].[moe](T)p.[moe]([m5C])p.[moe](A)[sp].[moe]([m5C])}$$$$ (last 3' nucleoside missing)”, which 3 h FOB score is on record?
The 3 h FOB score was 0.5 score 0-7.

How did the 3 h FOB score turn out when “RNA1{[moe](T)[sp].[moe](G)[sp].[moe](T)[sp].[moe]([m5C])[sp].[moe](A)[sp].d([m5C])[sp].d(T)[sp].d(T)[sp].d(T)[sp].d([m5C])[sp].d(T)[sp].d(T)[sp].d([m5C])[sp].d(A)[sp].d(G)[sp].[moe]([m5C])[sp].[moe]([m5C])[sp].[moe](A)[sp].[moe](G)}$$$$ (last 3' nucleoside missing)” was run?
The 3 h FOB score was 6 score 0-7.

How did the 3 h FOB score turn out when “RNA1{[moe](T)[sp].[moe](G)p.[moe](G)p.[moe]([m5C])p.[moe](A)[sp].d(A)[sp].d(A)[sp].d([m5C])[sp].d(T)[sp].d([m5C])[sp].d(T)[sp].d([m5C])[sp].d(T)[sp].d(T)[sp].d(A)[sp].[moe](G)p.[moe](G)p.[moe](T)[sp].[moe](T)}$$$$ (last 3' nucleoside missing)” was run?
Its 3 h FOB score is 1.33 score 0-7.

How did the 3 h FOB score turn out when “RNA1{[moe](G)[sp].[moe](A)p.[moe](G)p.[moe](T)p.[moe](A)[sp].d(A)[sp].d(A)[sp].d(T)[sp].d([m5C])[sp].d(A)[sp].d(T)[sp].d(A)[sp].d(A)[sp].d(A)[sp].d(A)[sp].[moe]([m5C])p.[moe](G)p.[moe](G)[sp].[moe](G)}$$$$ (last 3' nucleoside missing)” was run?
Its 3 h FOB score is 2 score 0-7.

How did the 3 h FOB score turn out when “RNA1{[moe](T)[sp].[moe](A)p.[moe]([m5C])p.[moe](A)p.[moe](T)[sp].d([m5C])[sp].d(A)[sp].d(T)[sp].d(T)[sp].d(T)[sp].d(T)[sp].d([m5C])[sp].d(T)[sp].d(T)[sp].d(G)[sp].[moe]([m5C])p.[moe](A)p.[moe](G)[sp].[moe](T)}$$$$ (last 3' nucleoside missing)” was run?
Its 3 h FOB score is 2.75 score 0-7.

Which 3 h FOB score does the source give for “RNA1{[moe]([m5C])[sp].[moe]([m5C])p.[moe](T)p.[moe](T)p.[moe](T)[sp].d(G)[sp].d(T)[sp].d(T)[sp].d(T)[sp].d(G)[sp].d(A)[sp].d(A)[sp].d([m5C])[sp].d([m5C])[sp].d([m5C])[sp].[moe](A)p.[moe]([m5C])p.[moe](A)[sp].[moe](T)}$$$$ (last 3' nucleoside missing)” here?
Its 3 h FOB score is 0 score 0-7.

“RNA1{[moe](G)[sp].[moe](T)p.[moe](T)p.[moe](G)p.[moe](T)[sp].d(A)[sp].d(G)[sp].d(G)[sp].d(A)[sp].d(A)[sp].d([m5C])[sp].d(T)[sp].d([m5C])[sp].d(G)[sp].d(A)[sp].[moe](A)p.[moe]([m5C])p.[moe]([m5C])[sp].[moe](A)}$$$$ (last 3' nucleoside missing)” was tested. Which 3 h FOB score did it give?
The 3 h FOB score was 1 score 0-7.

“RNA1{[moe](G)[sp].[moe](T)p.[moe](T)p.[moe]([m5C])p.[moe]([m5C])[sp].d(A)[sp].d(A)[sp].d(A)[sp].d(G)[sp].d(A)[sp].d(T)[sp].d(T)[sp].d([m5C])[sp].d([m5C])[sp].d(A)[sp].[moe]([m5C])p.[moe](T)p.[moe](T)[sp].[moe](T)}$$$$ (last 3' nucleoside missing)” was tested. Which 3 h FOB score did it give?
Its 3 h FOB score is 1.25 score 0-7.

Which 3 h FOB score does the source give for “RNA1{[moe](T)[sp].[moe]([m5C])p.[moe](A)p.[moe](T)p.[moe](A)[sp].d(T)[sp].d(T)[sp].d(G)[sp].d(T)[sp].d([m5C])[sp].d(T)[sp].d(T)[sp].d([m5C])[sp].d(A)[sp].d(A)[sp].[moe](T)p.[moe](G)p.[moe](T)[sp].[moe](G)}$$$$ (last 3' nucleoside missing)” here?
The 3 h FOB score was 2 score 0-7.

Which 3 h FOB score does the source give for “RNA1{[moe](G)[sp].[moe](G)p.[moe]([m5C])p.[moe](A)p.[moe](T)[sp].d([m5C])[sp].d(A)[sp].d([m5C])[sp].d(T)[sp].d(T)[sp].d(A)[sp].d([m5C])[sp].d(A)[sp].d(A)[sp].d(A)[sp].[moe]([m5C])p.[moe](T)p.[moe]([m5C])p.[moe](A)}$$$$ (last 3' nucleoside missing)” here?
The 3 h FOB score was 0 score 0-7.

With “RNA1{[moe]([m5C])[sp].[moe](A)p.[moe]([m5C])p.[moe]([m5C])p.[moe](A)[sp].d(T)[sp].d([m5C])[sp].d(T)[sp].d(A)[sp].d(T)[sp].d(A)[sp].d(A)[sp].d(T)[sp].d(A)[sp].d([m5C])[sp].[moe]([m5C])p.[moe](A)p.[moe](T)[sp].[moe]([m5C])}$$$$ (last 3' nucleoside missing)” as the substance, how does the 3 h FOB score read?
The 3 h FOB score was 0 score 0-7.

With “RNA1{[moe](G)[sp].[moe](T)p.[moe](T)p.[moe](G)p.[moe](A)[sp].d(A)[sp].d(T)[sp].d(T)[sp].d(T)[sp].d([m5C])[sp].d(T)[sp].d(T)[sp].d(A)[sp].d([m5C])[sp].d(A)[sp].[moe]([m5C])p.[moe](T)p.[moe](T)[sp].[moe](T)}$$$$ (last 3' nucleoside missing)” as the substance, how does the 3 h FOB score read?
Its 3 h FOB score is 0 score 0-7.

For “RNA1{[moe](G)[sp].[moe]([m5C])p.[moe](T)p.[moe](T)p.[moe]([m5C])[sp].d(A)[sp].d(T)[sp].d(T)[sp].d(A)[sp].d([m5C])[sp].d([m5C])[sp].d(A)[sp].d([m5C])[sp].d(T)[sp].d(T)[sp].[moe]([m5C])p.[moe](T)p.[moe](G)[sp].[moe](A)}$$$$ (last 3' nucleoside missing)”, which 3 h FOB score is on record?
The 3 h FOB score was 1 score 0-7.

Which 3 h FOB score does the source give for “RNA1{[moe](G)[sp].[moe](T)p.[moe](T)p.[moe]([m5C])p.[moe](A)p.[moe]([m5C])[sp].d(A)[sp].d(G)[sp].d(T)[sp].d(T)[sp].d(T)[sp].d(A)[sp].d([m5C])[sp].d([m5C])[sp].d([m5C])[sp].d([m5C])[sp].[moe](A)p.[moe](A)[sp].[moe](G)}$$$$ (last 3' nucleoside missing)” here?
The 3 h FOB score was 0 score 0-7.

For “RNA1{[moe](A)[sp].[moe](A)p.[moe]([m5C])p.[moe](T)p.[moe]([m5C])[sp].d(G)[sp].d(A)[sp].d(A)[sp].d([m5C])[sp].d([m5C])[sp].d(A)[sp].d([m5C])[sp].d([m5C])[sp].d(T)[sp].d([m5C])[sp].[moe](T)p.[moe](T)p.[moe]([m5C])[sp].[moe]([m5C])}$$$$ (last 3' nucleoside missing)”, which 3 h FOB score is on record?
The 3 h FOB score was 0 score 0-7.

For “RNA1{[moe]([m5C])[sp].[moe](A)p.[moe](T)p.[moe]([m5C])p.[moe](A)[sp].d([m5C])[sp].d(T)[sp].d(T)[sp].d(A)[sp].d([m5C])[sp].d(A)[sp].d(A)[sp].d(A)[sp].d([m5C])[sp].d(T)[sp].[moe]([m5C])p.[moe](A)p.[moe]([m5C])[sp].[moe]([m5C])}$$$$ (last 3' nucleoside missing)”, which 3 h FOB score is on record?
The 3 h FOB score was 0.5 score 0-7.

How did the 3 h FOB score turn out when “RNA1{[moe](G)[sp].[moe](T)p.[moe](A)p.[moe](T)p.[moe]([m5C])[sp].d([m5C])[sp].d(T)[sp].d([m5C])[sp].d(T)[sp].d(T)[sp].d(A)[sp].d(A)[sp].d(T)[sp].d(T)[sp].d([m5C])[sp].[moe]([m5C])p.[moe](T)p.[moe](A)[sp].[moe](T)}$$$$ (last 3' nucleoside missing)” was run?
The 3 h FOB score was 0 score 0-7.

How did the 3 h FOB score turn out when “RNA1{[moe](G)[sp].[moe]([m5C])p.[moe](G)p.[moe]([m5C])p.[moe](A)[sp].d(T)[sp].d(T)[sp].d(T)[sp].d(A)[sp].d([m5C])[sp].d(T)[sp].d(A)[sp].d(G)[sp].d([m5C])[sp].d(A)[sp].[moe]([m5C])p.[moe](A)p.[moe](T)[sp].[moe](T)}$$$$ (last 3' nucleoside missing)” was run?
Its 3 h FOB score is 1.67 score 0-7.

Which 3 h FOB score does the source give for “RNA1{[moe](G)[sp].[moe](A)[sp].[moe](T)p.[moe]([m5C])p.[moe](T)[sp].d(G)[sp].d(A)[sp].d(A)[sp].d(T)[sp].d([m5C])[sp].d([m5C])[sp].d([m5C])[sp].d(A)[sp].d([m5C])[sp].d(T)[sp].[moe](T)p.[moe]([m5C])p.[moe]([m5C])[sp].[moe]([m5C])}$$$$ (last 3' nucleoside missing)” here?
The 3 h FOB score was 0.25 score 0-7.

How did the 3 h FOB score turn out when “RNA1{[moe](G)[sp].[moe](T)p.[moe]([m5C])p.[moe](A)p.[moe]([m5C])[sp].d(A)[sp].d(T)[sp].d(G)[sp].d(A)[sp].d(T)[sp].d(A)[sp].d(T)[sp].d(T)[sp].d(T)[sp].d([m5C])[sp].[moe](A)p.[moe](G)p.[moe](A)[sp].[moe](T)}$$$$ (last 3' nucleoside missing)” was run?
The 3 h FOB score was 1 score 0-7.

“RNA1{[moe](G)[sp].[moe]([m5C])p.[moe](T)p.[moe](G)p.[moe](T)[sp].d(T)[sp].d(G)[sp].d(T)[sp].d(A)[sp].d(G)[sp].d(G)[sp].d(A)[sp].d(A)[sp].d([m5C])[sp].d(T)[sp].[moe]([m5C])p.[moe](G)p.[moe](A)[sp].[moe](A)}$$$$ (last 3' nucleoside missing)” was tested. Which 3 h FOB score did it give?
Its 3 h FOB score is 4 score 0-7.

For “RNA1{[moe](G)[sp].[moe]([m5C])p.[moe](A)p.[moe](G)p.[moe](A)[sp].d(A)[sp].d(T)[sp].d(A)[sp].d([m5C])[sp].d([m5C])[sp].d(A)[sp].d(A)[sp].d(G)[sp].d(T)[sp].d(T)[sp].[moe](A)p.[moe](G)p.[moe](T)[sp].[moe](A)}$$$$ (last 3' nucleoside missing)”, which 3 h FOB score is on record?
The 3 h FOB score was 0.25 score 0-7.

“RNA1{[moe]([m5C])[sp].[moe]([m5C])p.[moe](A)p.[moe](A)p.[moe](G)[sp].d(T)[sp].d(A)[sp].d(T)[sp].d(T)[sp].d(T)[sp].d(T)[sp].d([m5C])[sp].d([m5C])[sp].d(T)[sp].d(G)[sp].[moe]([m5C])p.[moe](A)p.[moe](T)[sp].[moe]([m5C])}$$$$ (last 3' nucleoside missing)” was tested. Which 3 h FOB score did it give?
Its 3 h FOB score is 0 score 0-7.

For “RNA1{[moe](T)[sp].[moe](G)p.[moe](G)p.[moe]([m5C])p.[moe](T)[sp].d(T)[sp].d(A)[sp].d(T)[sp].d(G)[sp].d(A)[sp].d(T)[sp].d([m5C])[sp].d(T)[sp].d(A)[sp].d(T)[sp].[moe](A)p.[moe]([m5C])p.[moe](A)[sp].[moe]([m5C])}$$$$ (last 3' nucleoside missing)”, which 3 h FOB score is on record?
The 3 h FOB score was 1 score 0-7.
